Key:
BRD4 (BDI_K57-E168) = target: T1, BRD4 (BDI_K57-E168) (Homo sapiens, UniProt O60885); assay: TR-FRET bromodomain binding assay, BRD4 first bromodomain; conditions: His-tagged BD1, 100 nM Alexa647 probe; assay protocol D or F as given per row in c1; Ki calculated from IC50
T1 construct: BD1: amino acids K57-E168; made in house
Method: (§1) A time-resolved fluorescence resonance energy transfer (TR-FRET) assay was used to determine the affinities of compounds of the Examples listed in Table 1 for each bromodomain of BRD4. His-tagged first (BD1: amino acids K57-E168) and second (BD2: amino acids E352-E168) bromodomains of BRD4 were expressed and purified. An Alexa647-labeled BET-inhibitor was used as the fluorescent probe in the assay.
(§2) Compound dilution series were prepared in DMSO via an approximately 3-fold serial dilution from one of the following:
(§3) Assay method D: 500 μM-8.5 nM
(§4) Assay method E: 0.47 mM to 7.8 nM
(§5) Assay method F: 250 μM-4.2 nM
(§6) Assay method G: 0.047 mM to 0.78 nM
(§7) or 5-fold serial dilution from one of the following:
(§8) Assay method A: 2.5 mM-800 nM
(§9) Assay method B: 2.5 mM-797 nM
(§10) For Assay methods A, C, D, and F: Compounds were then diluted 6:100 in assay buffer (20 mM Sodium Phosphate, pH 6.0, 50 mM NaCl, 1 mM Ethylenediaminetetraacetic acid, 0.01% Triton X-100, 1 mM DL-Dithiothreitol) to yield 3× working solutions. Six microliters (μL) of the working solution was then transferred to white, low-volume assay plates (Costar #3673). A 1.5× assay mixture containing His-tagged bromodomain, Europium-conjugated anti-His antibody (Invitrogen PV5596) and the Alexa-647-conjugated probe molecule was also prepared. Twelve μL of this solution were added to the assay plate to reach a final volume of 18 μL.
(§11) For Assay methods B, E, and G: Compound dilutions were added directly into white, low-volume assay plates (Perkin Elmer Proxiplate 384 Plus#6008280) using a Labcyte Echo in conjunction with Labcyte Access and Thermo Multidrop CombinL robotics. Compounds were then suspended in eight microliters (μL) of assay buffer (20 mM Sodium Phosphate, pH 6.0, 50 mM NaCl, 1 mM Ethylenediaminetetraacetic acid disodium salt dihydrate, 0.01% Triton X-100, 1 mM DL-Dithiothreitol) containing His-tagged bromodomain, Europium-conjugated anti-His antibody (Invitrogen PV5596) and Alexa-647-conjugated probe.
(§12) The final concentration of 1× assay mixture for assay methods A, B, C, D, E, F, and G contains 2% DMSO, 8 nM His-tagged bromodomain, 1 nM Europium-conjugated anti-His-tag antibody and 100 nM or 30 nM probe (for BDI or BDII, respectively) and compound concentration in the range of: 50 μM-16 nM for method A, 49.02 μM-15.63 nM for method B, 25 μM-423 pM for method C, 10 μM-169 pM for method D, 9.19 μM 150 pM for method E, 5 μM-85 pM for method F, and 0.92 μM-15 pM for method G.
(§13) After a one-hour equilibration at room temperature, TR-FRET ratios were determined using an Envision multilabel plate reader (Ex 340, Em 495/520).
(§14) TR-FRET data were normalized to the means of 24 no-compound controls (“high”) and 8 controls containing 1 μM un-labeled probe (“low”). Percent inhibition was plotted as a function of compound concentration and the data were fit with the 4 parameter logistic equation to obtain IC50s Inhibition constants (Ki) were calculated from the IC50s, probe Kd and probe concentration. Typical Z′ values were between 0.65 and 0.75. The minimum significant ratio was determined to evaluate assay reproducibility (Eastwood et al., (2006) J Biomol Screen, 11: 253-261). The MSR was determined to be 2.03 for BDI and 1.93 for BDII, and a moving MSR (last six run MSR overtime) for both BDI and BDII was typically <3.

BRD4 (BDII_E352-M457) = target: T2, BRD4 (BDII_E352-M457) (Homo sapiens, UniProt O60885); assay: TR-FRET bromodomain binding assay, BRD4 second bromodomain
T2 construct: protocol; made in house
Method: as §1, §2, §3, §4, §5, §6, §7, §8, §9, §10, §11, §12, §13, §14

[1] = test system: breast cancer cell line MX-1; assay: MX-1 cell line proliferation assay; assay type: cell-based; conditions: Homo sapiens, MX1; MX-1 cells, 3-day (72 h) proliferation, Cell Titer Glo; read-out: Cellular proliferation: EC50
Method: MX-1 Cell Line Proliferation Assay
The impact of compounds of the Examples on cancer cell proliferation was determined using the breast cancer cell line MX-1 (ATCC) in a 3-day proliferation assay and the data are reported in Table 1. MX-1 cells were maintained in RPMI 1640 medium (Sigma) supplemented with 10% FBS at 37 C.° and an atmosphere of 5% CO2. For compound testing, MX-1 cells were plated in 96-well black bottom plates at a density of 5000 cells/well in 90 μL of culture media and incubated at 37° overnight to allow cell adhesion and spreading. Compound dilution series were prepared in DMSO via a 3-fold serial dilution from 3 mM to 0.1 μM. The DMSO dilution series were then diluted 1:100 in phosphate buffered saline, and 10 μL of the resulted solution were added to the appropriate wells of the MX-1 cell plate. The final compound concentrations in the wells were 3, 1, 0.3, 0.1, 0.03, 0.01, 0.003, 0.001, 0.0003 and 0.0001 μM.
Luminescence readings from the Cell Titer Glo assay were normalized to the DMSO treated cells and analyzed using the GraphPad Prism software with sigmoidal curve fitting to obtain EC50s. The minimum significant ratio (MSR) was determined to evaluate assay reproducibility (Eastwood et al., (2006) J Biomol Screen, 11: 253-261). The overall MSR was determined to be 2.1 and a moving MSR (last six run MSR overtime) has been <2.

| Structure (SMILES) | Ki (BRD4 (BDI_K57-E168)) [nM] | Ki (BRD4 (BDII_E352-M457)) [nM] | EC50 [1] [nM] |
| --- | --- | --- | --- |
| Cn1cc2c3c(c[nH]c(=O)c31)CNc1ccc(S(C)(=O)=O)cc1-2 [Example 1] | 1350 | 2820 | > 3000 |
| Cn1cc2c3c(c[nH]c(=O)c31)CN(CC1CC1)c1ccc(S(C)(=O)=O)cc1-2 [Example 2] | 21 | 430 | 144 |
| Cn1cc2c3c(c[nH]c(=O)c31)CN(C(=O)C1CC1)c1ccc(CS(C)(=O)=O)cc1-2 [Example 6] | 3.53 | 2.44 | 16.4 |
| Cn1cc2c3c(c[nH]c(=O)c31)CN(C(=O)c1ccccc1)c1ccc(CS(C)(=O)=O)cc1-2 [Example 7] | 59.1 | 97.5 | 273 |
| COCCC1c2c[nH]c(=O)c3c2c(cn3C)-c2cc(CS(C)(=O)=O)ccc2N1c1ccc(F)cc1 (stereo not drawn) [Example 8] | 5.81 | 25.2 | 46.6 |
| COC(=O)CCC1c2c[nH]c(=O)c3c2c(cn3C)-c2cc(CS(C)(=O)=O)ccc2N1c1ccc(F)cc1 (stereo not drawn) [Example 9] | 6.29 | 18.2 | 805 |
| Cn1cc2c3c(c[nH]c(=O)c31)C(CC1CCOCC1)N(c1ccc(F)cc1)c1ccc(CS(C)(=O)=O)cc1-2 (stereo not drawn) [Example 10] | 8.23 | 57.4 | 81.6 |
| Cn1cc2c3c(c[nH]c(=O)c31)CN(CC1CC1)c1ccccc1-2 [Example 11] | 7.14 | 18.9 | 56.8 |
| CCS(=O)(=O)Nc1ccc2c(c1)-c1cn(C)c3c(=O)[nH]cc(c13)CN2c1ccc(F)cc1 [Example 12] | 2.18 | 4.3 | 5.63 |
| Cn1cc2c3c(c[nH]c(=O)c31)CN(c1ccc(F)cc1)c1ccc(Cl)cc1-2 [Example 13] | 2.74 | 34.1 | 72 |
| Cn1cc2c3c(c[nH]c(=O)c31)CN(c1ccc(F)cc1)c1ncc(N)cc1-2 [Example 14] | 3 | 3.69 | 2.78 |
| CCOC(=O)C1c2c[nH]c(=O)c3c2c(cn3C)-c2cc(CS(C)(=O)=O)ccc2N1c1ccc(F)cc1 (stereo not drawn) [Example 15] | 9.14 | 26.9 | 36.3 |
| Cn1cc2c3c(c[nH]c(=O)c31)CN(c1ccc(F)cc1)c1ncc(F)cc1-2 [Example 16] | 0.79 | 5.07 | 5.55 |
| Cn1cc2c3c(c[nH]c(=O)c31)CN(c1ccc(F)cc1)c1ncc(NC(=O)Cc3cc(F)ccc3Cl)cc1-2 [Example 17] | 1.43 | 2.48 | 19.9 |
| Cc1cc(CC(=O)Nc2cnc3c(c2)-c2cn(C)c4c(=O)[nH]cc(c24)CN3c2ccc(F)cc2)nn1C [Example 18] | 1.82 | 3.46 | 7.02 |
| Cn1cc2c3c(c[nH]c(=O)c31)CN(c1ccc(F)cc1)c1ncc(NC(=O)Cn3ccc(-c4ccccc4F)n3)cc1-2 [Example 19] | 1.32 | 11.6 | 68.7 |
| Cn1cc2c3c(c[nH]c(=O)c31)CN(c1ccc(F)cc1)c1ncc(NC(=O)Cc3ccc(Cl)cc3F)cc1-2 [Example 20] | 1.76 | 4.69 | 36.5 |
| Cn1cc2c3c(c[nH]c(=O)c31)CN(c1ccc(F)cc1)c1ncc(NC(=O)Cc3ccc4c(c3)CCCO4)cc1-2 [Example 21] | 1.05 | 2.69 | 16.6 |
| Cn1cc(CC(=O)Nc2cnc3c(c2)-c2cn(C)c4c(=O)[nH]cc(c24)CN3c2ccc(F)cc2)cn1 [Example 22] | 1.29 | 3.03 | 16.5 |
| Cn1cc2c3c(c[nH]c(=O)c31)CN(c1ccc(F)cc1)c1ccc(N)cc1-2 [Example 23] | 1.38 | 7.54 | 4.79 |
| Cn1cc2c3c(c[nH]c(=O)c31)C(c1ccccc1)N(c1ccc(F)cc1)c1ccc(Cl)cc1-2 (stereo not drawn) [Example 24] | 178 | > 408 |  |
| Cn1cc2c3c(c[nH]c(=O)c31)C(c1ccccc1)Nc1ccc(CS(C)(=O)=O)cc1-2 (stereo not drawn) [Example 25] | 192 | 124 | > 1000 |
| Cn1cc2c3c(c[nH]c(=O)c31)CN(c1ccc(F)cc1)c1ccc(NC(=O)Cc3ccc(Cl)cc3F)cc1-2 [Example 29] | 3.03 | 22.4 |  |
| Cn1cc2c3c(c[nH]c(=O)c31)CN(c1ccc(F)cc1)c1ccc(NC(=O)Cn3ccc(-c4ccccc4F)n3)cc1-2 [Example 31] | 11.5 | 79.5 |  |
| COc1cccc(NC(=O)Nc2ccc3c(c2)-c2cn(C)c4c(=O)[nH]cc(c24)CN3c2ccc(F)cc2)c1 [Example 45] | 7.12 | 130 |  |

Further lines, results first:

| Ki (BRD4 (BDI_K57-E168)) [nM] | Ki (BRD4 (BDII_E352-M457)) [nM] | EC50 [1] [nM] | Structure (SMILES) |
| --- | --- | --- | --- |
| 3.29 | 19.7 |  | Cn1cc2c3c(c[nH]c(=O)c31)CN(c1ccc(F)cc1)c1ccc(NC(=O)Cc3ccc4c(c3)CCCO4)cc1-2 [Example 46] |
| 5.12 | 84.8 |  | Cn1cc2c3c(c[nH]c(=O)c31)CN(c1ccc(F)cc1)c1ccc(NC(=O)Cc3cc(F)ccc3C(F)(F)F)cc1-2 [Example 51] |
| 2.61 | 50.1 |  | Cc1ccc(C)c(CC(=O)Nc2ccc3c(c2)-c2cn(C)c4c(=O)[nH]cc(c24)CN3c2ccc(F)cc2)c1 [Example 53] |
| 2.07 | 17.9 |  | Cn1cc2c3c(c[nH]c(=O)c31)CN(c1ccc(F)cc1)c1ccc(NC(=O)Cc3ccccc3)cc1-2 [Example 54] |
| 9.31 | 240 |  | Cn1cc2c3c(c[nH]c(=O)c31)CN(c1ccc(F)cc1)c1ccc(NC(=O)Cc3cc(Cl)ccc3Oc3ccccc3)cc1-2 [Example 55] |
| 1.74 | 57.4 |  | COc1ccc(F)cc1CNC(=O)c1ccc2c(c1)-c1cn(C)c3c(=O)[nH]cc(c13)CN2c1ccc(F)cc1 [Example 56] |
| 2.89 | 71.5 |  | CC(NC(=O)c1ccc2c(c1)-c1cn(C)c3c(=O)[nH]cc(c13)CN2c1ccc(F)cc1)c1ccc(F)cc1 (stereo not drawn) [Example 59] |
| 5.17 | 147 |  | CC(NC(=O)c1ccc2c(c1)-c1cn(C)c3c(=O)[nH]cc(c13)CN2c1ccc(F)cc1)c1ccc(Cl)cc1Cl (stereo not drawn) [Example 61] |
| 1.73 | 46.9 |  | Cn1cc2c3c(c[nH]c(=O)c31)CN(c1ccc(F)cc1)c1ccc(C(=O)NCc3cc(F)ccc3F)cc1-2 [Example 64] |
| 21.2 | 7 |  | Cn1cc2c3c(c[nH]c(=O)c31)CN(c1ccc(F)cc1F)c1ncc(N)cc1-2 [Example 67] |
| 7.08 | 41.8 |  | CC(=O)N1CCC(N2Cc3c[nH]c(=O)c4c3c(cn4C)-c3cc(N)ccc32)CC1 [Example 73] |
